Results published in US20070004680A1, “Compositions and methods for modulating gated ion channels” (PainCeptor Pharma Corporation, priority 2004, published 2007).

Legend:
ASIC1a [1] = molecular target: T1, ASIC1a (Rattus norvegicus, UniProt P55926); experiment: whole cell patch clamp electrophysiology, ASIC1a; assay type: cell-based; conditions: 1 μM compound; pH 6.5 and pH 5.0; compared with the corresponding 5-vinyl esters
T1 construct: expressed in transfected cells; host or cells: HEK cells according to b213
T1 sequence (P55926 1-526): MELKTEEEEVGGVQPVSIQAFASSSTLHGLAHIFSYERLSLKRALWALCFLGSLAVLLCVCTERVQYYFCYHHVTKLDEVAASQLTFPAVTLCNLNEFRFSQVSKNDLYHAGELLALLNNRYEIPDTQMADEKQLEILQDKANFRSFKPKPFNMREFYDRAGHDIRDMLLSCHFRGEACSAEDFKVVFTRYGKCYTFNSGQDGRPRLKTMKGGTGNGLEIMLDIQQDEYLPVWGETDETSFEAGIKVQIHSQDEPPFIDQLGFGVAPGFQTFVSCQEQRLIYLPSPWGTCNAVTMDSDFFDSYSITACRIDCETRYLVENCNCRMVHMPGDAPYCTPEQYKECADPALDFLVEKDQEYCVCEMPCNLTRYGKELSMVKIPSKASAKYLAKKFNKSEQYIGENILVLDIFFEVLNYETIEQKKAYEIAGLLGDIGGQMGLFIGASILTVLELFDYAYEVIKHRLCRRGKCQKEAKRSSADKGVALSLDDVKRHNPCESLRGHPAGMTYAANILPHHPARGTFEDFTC
Method: (§1) Another example of an in vitro assessment method consists of using mammalian heterologous expression systems, which are known to the skilled in the art, and include a variety of mammalian cell lines such as COS, HEK, e.g., HEK293and/or CHO, cells. Cell lines are transfected with gated ion channel(s) and used to perform electrophysiology as follows:
(§2) All experiments are performed at room temperature (20-25° C.) in voltage clamp using conventional whole cell patch clamp methods (Neher, E., et al. (1978) Pfluegers Arch 375:219-228).
(§3) The amplifier used is the EPC-9 (HEKA-electronics, Lambrect, Germany) run by a Macintosh G3 computer via an ITC-16 interface. Experimental conditions are set with the Pulse-software accompanying the amplifier. Data is low pass filtered and sampled directly to hard-disk at a rate of 3 times the cut-off frequency.
(§4) Pipettes are pulled from borosilicate glass using a horizontal electrode puller (Zeitz-lnstrumente, Augsburg, Germany). The pipette resistances are 2-3 MOhms in the salt solutions used in these experiments. The pipette electrode is a chloridized silver wire, and the reference is a silver chloride pellet electrode (In Vivo Metric, Healdsburg, USA) fixed to the experimental chamber. The electrodes are zeroed with the open pipette in the bath just prior to sealing.
(§5) Coverslips with the cells are transferred to a 15 μl experimental chamber mounted on the stage of an inverted microscope (IMT-2, Olympus) supplied with Nomarski optics. Cells are continuously superfused with extracellular saline at a rate of 2.5 ml/min. After giga-seal formation, the whole cell configuration is attained by suction. The cells are held at a holding voltage of −60 mV and at the start of each experiment the current is continuously measured for 45 s to ensure a stable baseline. Solutions of low pH (<7) are delivered to the chamber through a custom-made gravity-driven flowpipe, the tip of which is placed approximately 50 μm from the cell. Application is triggered when the tubing connected to the flowpipe is compressed by a valve controlled by the Pulse-software. Initially, low pH (in general, pH 6.5) is applied for 1 s every 45 s. The sample interval during application is 550 μs. After stable responses are obtained, the extracellular saline as well as the low-pH solution are switched to solutions containing the compound to be tested. The compound is present until responses of a repeatable amplitude are achieved. Current amplitudes are measured at the peak of the responses, and effect of the compounds is calculated as the amplitude at compound equilibrium divided by the amplitude of the current evoked by the pulse just before the compound was included.
The following salt solutions are used: extracellular solution (mM): NaCl (140), KCl (4), CaCl2 (2), MgCl2 (4), HEPES (10, pH 7.4); intracellular solution (mM): KCl (120), KOH (31), MgCl2 (1.785), […] (10), HEPES (10, pH 7.2). In general, compounds for testing are dissolved in 50% DMSO at 500 fold the highest concentration used.
The cDNA for ASIC1a and ASIC3 can be cloned from rat poly(A)^+ mRNA and put into expression vectors according to Hesselager et al. (J Biol Chem. 279(12):11006-15 2004). All constructs are expressed in CHO-K1 cells (ATCC no. CCL61). CHO-K1 cells are cultured at 37° C. in a humidified atmosphere of 5% CO2 and 95% air and passaged twice every week. The cells are maintained in DMEM (10 mM HEPES, 2 mM glutamax) supplemented with 10% fetal bovine serum and 2 mM L-proline (Life Technologies). […]

ASIC3 = molecular target: T2, ASIC3 (Rattus norvegicus, UniProt O35240); experiment: whole cell patch clamp electrophysiology, ASIC3; assay type: cell-based; conditions: 1 μM compound; pH 6.5 and pH 5.0; compared with the corresponding 5-vinyl esters
T2 construct: expressed in transfected cells
T2 sequence (O35240 1-533): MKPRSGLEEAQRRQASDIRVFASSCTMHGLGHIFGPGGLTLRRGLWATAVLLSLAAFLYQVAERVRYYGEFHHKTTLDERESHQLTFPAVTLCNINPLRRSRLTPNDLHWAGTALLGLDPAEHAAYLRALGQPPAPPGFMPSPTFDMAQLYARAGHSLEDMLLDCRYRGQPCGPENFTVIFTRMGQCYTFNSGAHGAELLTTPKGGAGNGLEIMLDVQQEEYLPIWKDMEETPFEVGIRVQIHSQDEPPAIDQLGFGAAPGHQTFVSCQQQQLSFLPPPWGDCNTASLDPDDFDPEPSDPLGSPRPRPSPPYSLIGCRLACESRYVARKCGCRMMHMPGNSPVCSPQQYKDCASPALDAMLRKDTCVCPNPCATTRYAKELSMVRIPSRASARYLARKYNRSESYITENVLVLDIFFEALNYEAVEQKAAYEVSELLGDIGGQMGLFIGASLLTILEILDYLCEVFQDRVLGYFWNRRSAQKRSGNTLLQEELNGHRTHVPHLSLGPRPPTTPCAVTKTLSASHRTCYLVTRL
Method: as §1, §2, §3, §4
as §5, with “included. […]” for “included.”

Male Sprague-Dawley rats = experiment: Formalin test (flinching behaviour); assay type: in vivo, rat; conditions: 10 mg/kg i.v. 10 min prior to formalin in the hind limb; compared with vehicle; n=8
Method: Male Sprague-Dawley rats (body weight, 180-300 g) are housed together in groups of four animals under standard conditions with unrestricted access to food and water. Rats are housed in the room in which the testing procedure is performed to minimize any stress response to novel environmental cues. All experiments are conducted according to the ethical guidelines for investigations of experimental pain in conscious animals (Zimmerman, 1983).
Separate groups of rats are used for the different experiments such that each animal is used on one occasion only. All experiments for a given compound are performed using age matched animals in an attempt to avoid variability between experiments. Prior to initiation of the formalin test, 4 rats are habituated in separate testing cages for 15-20 min. […] On the basis of the response pattern, two distinct phases of nociceptive behavior are observed, characterized by flinching of the affected paw and scored (Blackburn-Munro et al., Eur J Pharmacol. 2002 Jun. 12;445(3):231-8). […]
All data is analysed using Sigmastat 2.03 statistical software (Jandel Scientific GmbH, Germany) and expressed as mean±S.E.M. Two Way Repeated Measures Analysis of Variance (Two Way RM ANOVA) is used to analyse formalin test data and where applicable, this is followed by post-hoc analysis using Bonferroni's t-test to allow comparisons between groups. […]

ASIC1a [2] = molecular target: T3, ASIC1a (Homo sapiens, UniProt P78348); experiment: FLIPR calcium assay (MES-induced calcium response), ASIC1a expressing HEK293 cells; assay type: cell-based; conditions: HEK293; at 1 μM, HEK cells, FLIPR
T3 construct: host or cells: HEK293
T3 sequence (P78348 1-528): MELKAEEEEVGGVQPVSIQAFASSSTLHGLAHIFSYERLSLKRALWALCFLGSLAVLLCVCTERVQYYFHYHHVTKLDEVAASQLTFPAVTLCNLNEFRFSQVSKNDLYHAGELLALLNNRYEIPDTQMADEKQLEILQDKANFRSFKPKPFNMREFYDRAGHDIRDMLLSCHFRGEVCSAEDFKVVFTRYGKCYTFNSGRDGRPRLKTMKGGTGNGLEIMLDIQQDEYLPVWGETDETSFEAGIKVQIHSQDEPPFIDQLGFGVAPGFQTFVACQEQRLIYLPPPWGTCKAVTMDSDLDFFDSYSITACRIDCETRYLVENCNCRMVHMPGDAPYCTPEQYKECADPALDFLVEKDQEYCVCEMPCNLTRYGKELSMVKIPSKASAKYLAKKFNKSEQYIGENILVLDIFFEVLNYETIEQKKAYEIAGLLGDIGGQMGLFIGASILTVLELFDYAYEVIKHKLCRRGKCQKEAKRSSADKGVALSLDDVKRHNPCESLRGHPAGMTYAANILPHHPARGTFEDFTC
Method: ASIC1a expressing HEK293 cells are grown in culture medium (DMEM with 10% FBS), in polystyrene culture flasks ([…]) at 37° C. in a humidified atmosphere of 5% CO2. Confluency of cells should be 80-90% on day of plating. Cells are rinsed with 10 ml of PBS and cells are re-suspended by addition of culture medium and trituration with a 25 ml pipette.
The cells are seeded at a density of approximately 1×10^6 cells/ml (100 μl/well) in black-walled, clear bottom, 96-well plates pre-treated with 10 mg/l poly-D-lysin (75 μl/well for ≧30 min). Plated cells were allowed to proliferate for 24 h before loading with dye.
Fluo-4/AM (1 mg, Molecular Probes) is added 912 μl DMSO. The Fluo-4/AM stock solution (1 mM) is diluted with culture medium to a final concentration of 2 μM.
The culture medium is aspirated from the wells, and 50 μl of the Fluo-4/AM loading solution is added to each well. The cells are incubated at 37° C. for 30 min.
After the loading period, the loading solution is aspirated and the cells are washed twice with 100 μl modified FLIPR medium (145 mM NaCl, 5 mM KCl, 5 mM CaCl2, 1 mM MgCl2, 10 mM HEPES, pH 7.4) to remove extracellular dye. Following the second wash, 100 μl modified FLIPR medium is added to each well and the fluorescence is measured in FLIPR.
Temperature: Room temperature (20-22° C.)
First addition: 50 μl test solution at a rate of 30 μl/sec and a starting height of […]
Second addition: 50 μl MES solution (20 mM, 5 mM final concentration) at a rate of 35 μl/sec and a starting height of 150 μl.
Reading intervals: pre-incubation—10 sec×7 and 3 sec×3 antagonist phase—3 sec×17 and 10 sec×12
Addition plates (compound test plate and MES plate) are placed on the right and left positions in the FLIPR tray, respectively. Cell plates are placed in the middle position and the ASIC1a program is effectuated. FLIPR will then take the appropriate measurements in accordance with the interval settings above. Fluorescence obtained after stimulation is corrected for the mean basal fluorescence (in modified FLIPR medium). […]

`CCC1CN2CCC1CC2C(OC(=O)CC(C)(C)C)c1ccnc2ccc(OC)cc12` (stereo not drawn) [3,3-dimethyl-butyric acid (5-ethyl-1-aza-bicyclo[2.2.2]oct-2-yl)-(6-methoxy-quinolin-4-yl)-methyl ester] was tested, and the “difference in current between control ASICs and ASICs with compound (ASIC1a)” value (ASIC1a [1]) was “larger difference in current” and the “difference in current between control ASICs and ASICs with compound (ASIC3)” value (ASIC3) was “larger difference in current”.
`C=CC1CN2CCC1CC2[C@H](OC(=O)CCC1CCCC1)c1ccnc2ccccc12` (stereo partly drawn) [B] was tested, and the “flinching behaviour in Formalin test” value (Male Sprague-Dawley rats) was “attenuated flinching behaviour”.
In the case of `C=CC1CN2CCC1CC2[C@H](OC(=O)CCC1CCCC1)c1ccnc2ccccc12` (stereo partly drawn) [drawing 27], the inhibition at 1 µM (ASIC1a [2]) is reported as 30 to 45%.
With `CCCCC(=O)OC(c1ccnc2ccc(OC)cc12)C1CC2CCN1CC2CC` (stereo not drawn) [pentanoic acid (5-ethyl-1-aza-bicyclo[2.2.2]oct-2-yl)-(6-methoxy-quinolin-4-yl)-methyl ester] the “difference in current between control ASICs and ASICs with compound (ASIC1a)” value (ASIC1a [1]) was “larger difference in current” and the “difference in current between control ASICs and ASICs with compound (ASIC3)” value (ASIC3) was “larger difference in current”.
